From paper PMC6345825, “Crystal structure of the plant symporter STP10 illuminates sugar uptake mechanism in monosaccharide transporter superfamily” (Nature Communications, 2019)
Each block holds one compound with its values, some of them ahead of it.

Columns and labels:
STP10 [1] = target: T1, STP10 (Arabidopsis thaliana, UniProt Q9LT15); experiment: [3H]-2-deoxy-D-glucose uptake in yeast EBY-WV4000; format: cell-based; conditions: pH 5.0; 30 °C; labelled compound
T1 construct: full length 514 residues; S. cerevisiae expression, C-terminal thrombin site and His10 tag, tag cut with thrombin for structure (model residues 21-507, monomer); STP10 gene subcloned for Xenopus oocyte and yeast EBY-WV4000 uptake
T1 sequence (Q9LT15 1-514): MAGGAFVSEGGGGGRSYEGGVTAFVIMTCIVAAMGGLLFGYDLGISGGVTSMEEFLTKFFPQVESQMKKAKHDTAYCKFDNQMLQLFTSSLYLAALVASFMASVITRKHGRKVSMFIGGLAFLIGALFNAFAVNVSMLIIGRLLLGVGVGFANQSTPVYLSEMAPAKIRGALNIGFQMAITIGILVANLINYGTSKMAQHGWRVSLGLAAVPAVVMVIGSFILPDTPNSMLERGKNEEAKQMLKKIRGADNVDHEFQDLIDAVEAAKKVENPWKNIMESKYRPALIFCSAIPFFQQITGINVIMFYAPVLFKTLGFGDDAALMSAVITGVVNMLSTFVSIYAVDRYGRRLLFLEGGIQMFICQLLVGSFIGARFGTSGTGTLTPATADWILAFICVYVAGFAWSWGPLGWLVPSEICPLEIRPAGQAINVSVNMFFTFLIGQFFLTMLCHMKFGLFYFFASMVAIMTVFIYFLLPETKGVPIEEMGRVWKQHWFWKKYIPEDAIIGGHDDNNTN

STP10 [2] = target: T1, STP10; experiment: competition with [3H]-D-glucose uptake in yeast EBY-WV4000; format: cell-based; conditions: pH 5.0; 30 °C; 250 µM competitor against 10 µM D-glucose
STP10 [3] = target: T1, STP10; experiment: X-ray crystal structure, […] Å; conditions: central binding site; outward occluded state; lipidic cubic phase, pH 4.5
STP10 [4] = target: T1, STP10; experiment: isothermal titration calorimetry, purified protein, one-site model; conditions: pH 5.5; 20 °C; 0.03% DDM; read-out: apparent Kd

SMILES: OC[C@H]1OC(O)C[C@@H](O)[C@@H]1O (some centres unmarked) [2-deoxyglucose]
[3H]-2-deoxy-D-glucose uptake in yeast EBY-WV4000 (STP10 [1]): The protein can transport the non-metabolized glucose analog 2-deoxyglucose

SMILES: OC[C@H]1OC(O)[C@@H](O)[C@@H](O)[C@@H]1O (some centres unmarked) [mannose]
competition (STP10 [2]): Competition assays using radioactively labeled glucose confirm galactose and mannose as potential substrates

X-ray crystal structure, 2.4 Å (STP10 [3]): contains unambiguous density for glucose
Kd (STP10 [4]): 3.2 µM
SMILES: OC[C@H]1OC(O)[C@H](O)[C@@H](O)[C@@H]1O (some centres unmarked) [glucose]

SMILES: OC[C@H]1OC(O)[C@H](O)[C@@H](O)[C@H]1O (some centres unmarked) [galactose]
competition (STP10 [2]): Competition assays using radioactively labeled glucose confirm galactose and mannose as potential substrates
